Test results from patent US9173838B2, “Reverse micelle compositions for delivery of metal cations comprising a diglyceride and a phytosterol and method of preparation” (MEDESIS PHARMA SA, priority 2004, dated 2015).
Blank lines part the entries; values can stand above or below the molecule they belong to.

What was measured:
[1] = tested on: fructose rats (non insulin dependent diabetes model); assay: Antidiabetic activity on fructose rats; assay type: in vivo; details: for glycemia D 0: D0 before start of treatment (baseline); for glycemia D3: day 3 of daily treatment; for glycemia D7: day 7 of daily treatment; for glycemia D21: day 21 of daily treatment
Description: 1—Antidiabetic Activity on Fructose Rats
The model of the fructose rats is a non insulin dependent diabetes (NIDD) similar to the observed human type 2 diabetes.
In this study, the NP 01 product contains reverse micelles based on vanadium, prepared according to example 2. Its therapeutic activity is compared with two reference drugs: Metformin and Rosiglitazone.
At D −21, after the period of stalling, rats are weighed and a blood sampling is made to determine the basal values of the biochemical parameters.
The rats are distributed randomly in groups of 10 rats. The drink water is then replaced by a solution of fructose 10% in distilled water. This solution is provided ad libitum for 21 days. They receive then again normal water for the following 21 days of the treatment.
At D 0, animals are weighed and a blood sampling is carried out.
The treatment then starts for a 21-day duration, with a daily administration: • Control group: 1 ml/kg of normal water per os • NP 01group: 2 ml/kg by the rectal route • Metformin group: 50 mg/kg of Metformin per os. • Rosiglitazone group: 5 mg/kg of Rosiglitazone per os
At D 21, blood sample and end of the treatment.

growing rats = assay: Stimulation of the osseous growth on growing rats (femoral diameter); assay type: in vivo, Wistar female rats; details: once per day during 6 weeks, rectal route
Procedure: 3—Stimulation of the Osseous Growth on Growing Rats
The objective of this study is the assessment of a stimulation activity of the osseous growth in growing rats.
The product contains reverse micelles based on strontium prepared according to example 4.
(§1) The animals are Wistar female rats of 200 g (average).
(§2) Homogeneous batches of 10 rats are made up starting from their weight.
(§3) The treatment is administered once per day during 6 weeks.
(§4) Administered batches and products: • control batch (administration of olive oil by rectal route) • SrCl2 batch (SrCl2 and strontium ranelate are known active ingredients for the osseous growth and treatment of osteoporosis). 68.2 mg of metal Sr/kg/day are administered by rectal route. • NP 05 A batch: product prepared according to example 4 of the invention, with 12.5 mg metal Sr/kg/day.
(§5) NP 05 B batch: product prepared according to example 5 of the invention, with 1.21 mg metal Sr/kg/day.
(§6) NP 05 C batch: product prepared according to example 6 of the invention, with 0.12 mg metal Sr/kg/day.
(§7) Parameters analyzed at the end of the treatment: • animals weight • measurement of the diameter of the rats femoral head after euthanasia and sampling (slide caliper under binocular magnifying glass) • Strontium amount in bone (by atomic absorption). • Strontium amount in plasma (by atomic absorption). Results

[2] = Strontium amount in bone and plasma of growing rats (atomic absorption); assay type: in vivo, Wistar female rats; details: end of 6 weeks treatment
Procedure: as §1, §2, §3, §4, §5, §6, §7

[3] = tested on: adryamycin-induced inflammation/oedema in male Wistar rat leg; assay: SOD like activity on rats: test with adryamycin (oedema by plethysmography); assay type: in vivo
Procedure: 2—<<SOD Like>> Activity on Rats: Test with Adryamycin
The test with adryamycin is a specific test to highlight free anti-radicals activity of a substance. The product contains reverse micelles based on manganese prepared according to example 3.
One hour after injection in the leg of a male Wistar rat of 0.2 ml of a solution of adryamycin, a temporary inflammation appears for approximately 12 hours. A second inflammatory phase begins on the 3rd day and lasts for 5 days. The vascular hyperpermeability and the oedema which results therefrom, with a deterioration of the cells of endothelial membranes, are caused by the release of free radicals. […] The oedema is measured by plethysmography (expressed by % of pow volume).
3 batches of 10 rats are made up: • negative batch controls: olive oil administration (2 ml/kg) by rectal route • positive batch controls: administration of 100 mg/kg of diosmine • batch treated by NP 02 (manufactured according to example 3): 2 ml/kg by rectal route Results (SD Stands for Standard Deviation)—FIG. 3

Structure (SMILES): CN(C)C(=N)N=C(N)N [Metformin]
- glycemia D 0 [1]: 10.64 mmol/L
- glycemia D3 [1]: 10.63 mmol/L
- glycemia D7 [1]: 9.68 mmol/L
- glycemia D21 [1]: 8.91 mmol/L

- Sr in bone [2]: 1508.83 µg/g
Structure (SMILES): [Cl-].[Cl-].[Sr+2] [SrCl2]
- Femoral diameter (growing rats): 3.93 mm

Structure (SMILES): COc1ccc(-c2cc(=O)c3c(O)cc(O[C@@H]4O[C@H](CO[C@@H]5O[C@@H](C)[C@H](O)[C@@H](O)[C@H]5O)[C@@H](O)[C@H](O)[C@H]4O)cc3o2)cc1O [Positive control, diosmine]
- free anti-radicals activity (in words) [3]: free anti-radical activity similar to Manganese superoxydismutase
- % of pow volume D1 ([3]; Wistar rats, D1): 106.7%
- % of pow volume D2 ([3]; Wistar rats, D2): 120.8%
- % of pow volume D3 ([3]; Wistar rats, D3): 152.2%
- % of pow volume D4 ([3]; Wistar rats, D4): 163%
- % of pow volume D5 ([3]; Wistar rats, D5): 177.6%
- % of pow volume D6 ([3]; Wistar rats, D6): 177.5%
- % of pow volume D7 ([3]; Wistar rats, D7): 168.2%
- % of pow volume D8 ([3]; Wistar rats, D8): 163.5%

Structure (SMILES): CN(CCOc1ccc(CC2SC(=O)NC2=O)cc1)c1ccccn1 (stereo not shown) [Rosiglitazone]
- glycemia D 0 [1]: 10.38 mmol/L
- glycemia D3 [1]: 10.47 mmol/L
- glycemia D7 [1]: 9.37 mmol/L
- glycemia D21 [1]: 9.13 mmol/L
